Reference: US20250228239A1, “MOLECULES HAVING PESTICIDAL UTILITY, AND INTERMEDIATES, COMPOSITIONS, AND PROCESSES, RELATED THERETO” (priority 2024, published 2025)

Key:
Type in all cases: in vivo
[1] = system: Yellow Fever Mosquito (Aedes aegypti, AEDSAE); details: for YFM rating: Yellow Fever Mosquito, Table ABC / ABC-DP rating; for YFM % Control (or Mortality) rating: about 1 day-old larvae, 4000 ppm master solution diluted with 90:10 water/acetone, 15 μL per well plus 220 μL larval mixture, 3 days
Protocol: Certain molecules disclosed in this document were tested against YFM using procedures described in the following paragraph. In the reporting of the results, the “GPA & YFM Rating Table” was used (See Table Section).
Master plates containing 400 μg of a molecule dissolved in 100 μL of dimethyl sulfoxide (DMSO) (equivalent to a 4000 ppm solution) are used. A master plate of assembled molecules contains 15 μL per well. To this plate, 135 μL of a 90:10 water/acetone mixture is added to each well. A robot (Biomek® NXP Laboratory Automation Workstation) is programmed to dispense 15 μL aspirations from the master plate into an empty 96-well shallow plate (“daughter” plate). There are 6 reps (“daughter” plates) created per master. The created “daughter” plates are then immediately infested with YFM larvae.
The day before plates are to be treated, mosquito eggs are placed in Millipore water containing liver powder to begin hatching (4 g into 400 mL). After the “daughter” plates are created using the robot, they are infested with 220 μL of the liver powder/larval mosquito mixture (about 1 day-old larvae). After plates are infested with mosquito larvae, a non-evaporative lid is used to cover the plate to reduce drying. Plates are held at room temperature for 3 days prior to grading. After 3 days, each well is observed and scored based on mortality. The results are indicated in the table entitled “Table ABC: Biological Results” (See Table Section).

[2] = system: Cabbage Looper (Trichoplusia ni, TRIPNI); assay: Bioassays on Cabbage Looper (CL), 128-well diet tray assay; details: Trichoplusia ni; for mortality at 50 µg/cm2: 168 h, second instar larvae, 50 μg/cm^2 of test molecule on artificial diet, 25° C., five to seven days, average of eight wells, read-out: CL % Control (or Mortality) rating; for pest or weed control at 50 µg/cm2: Cabbage Looper, Table ABC / ABC-DP rating, read-out: CL rating
Outline: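 Activity is mean percent mortality over eight wells of second-instar larvae exposed to diet treated at 50 μg/cm^2 for 5–7 days at 25° C.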

[3] = system: Beet Armyworm (Spodoptera exigua, LAPHEG); assay: Bioassays on Beet Armyworm (BAW), 128-well diet tray assay; details: Spodoptera exigua; for mortality at 50 µg/cm2: 168 h, second instar larvae, 50 μg/cm^2 of test molecule on artificial diet, 25° C., five to seven days, average of eight wells, read-out: BAW % Control (or Mortality) rating; for pest or weed control at 50 µg/cm2: Beet Armyworm, Table ABC / ABC-DP rating, read-out: BAW rating
Outline: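 Percent larval mortality, averaged across eight wells, scored after five to seven days at 25° C. under 14:10 light-dark. Each well held one to five second instars feeding on diet dosed at 50 μg/cm^2 with compound from 90:10 acetone-water, solvent dried off.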

Compound	YFM rating [1]	YFM % Control (or Mortality) rating [1]	mortality at 50 µg/cm2 [2]	pest or weed control at 50 µg/cm2 [2]	mortality at 50 µg/cm2 [3]	pest or weed control at 50 µg/cm2 [3]
Cc1cc(N)ccc1NC(=O)c1cc(NC(=O)[C@H]2[C@H](c3ccc(Cl)c(Cl)c3)C2(Cl)Cl)ccc1Cl (relative stereo) [DP1, trans-N-(4-amino-2-methylphenyl)-2-chloro-5-(2,2-dichloro-3-(3,4-dichlorophenyl)cyclopropane-1-carboxamido)benzamide]	A (80–100)	A (80–100)	50 to 100%	50 to 100%	50 to 100%	50 to 100%
Cc1cc(N)ccc1NC(=O)c1cc(NC(=O)[C@H]2[C@H](c3cc(Cl)cc(Cl)c3)C2(Cl)Cl)ccc1Cl (relative stereo) [DP4, trans-N-(4-Amino-2-methylphenyl)-2-chloro-5-(2,2-dichloro-3-(3,5-dichlorophenyl)cyclopropane-1-carboxamido)benzamide]	A (80–100)	A (80–100)	50 to 100%	50 to 100%	50 to 100%	50 to 100%
Cc1cc(NC(=O)OC(C)(C)C)ccc1NC(=O)c1cc(NC(=O)[C@H]2[C@H](c3cc(Cl)cc(Cl)c3)C2(Cl)Cl)ccc1Cl (relative stereo) [DP10, trans-tert-butyl-(4-(2-chloro-5-(2,2-dichloro-3-(3,5-dichlorophenyl)cyclopropane-1-carboxamido)benzamido)-3-methylphenyl)carbamate]	A (80–100)	A (80–100)	50 to 100%	50 to 100%	50 to 100%	50 to 100%
O=C(Nc1cc(F)c(F)c(Br)c1)c1cc(NC(=O)[C@H]2[C@H](c3cc(Cl)cc(Cl)c3)C2(Cl)Cl)ccc1Cl (relative stereo) [DP11, trans-N-(3-Bromo-4,5-difluorophenyl)-2-chloro-5-(2,2-dichloro-3-(3,5-dichlorophenyl)cyclopropane-1-carboxamido)benzamide]	A (80–100)	A (80–100)	50 to 100%	50 to 100%	50 to 100%	50 to 100%
CCNC(=O)c1cc(NC(=O)[C@H]2[C@H](c3ccc(F)c(Cl)c3)C2(Cl)Cl)cc(F)c1OC (relative stereo) [F2057, trans-5-(2,2-Dichloro-3-(3-chloro-4-fluorophenyl)cyclopropane-1-carboxamido)-N-ethyl-3-fluoro-2-methoxybenzamide]	A (80–100)			50 to 100%		
O=C(NNc1ccc(C(F)(F)F)cc1)c1cc(NC(=O)[C@H]2[C@H](c3cc(Cl)cc(Cl)c3)C2(Cl)Cl)ccc1Cl (relative stereo) [F2571, trans-2,2-Dichloro-N-(4-chloro-3-(2-(4-(trifluoromethyl)phenyl)hydrazine-1-carbonyl)phenyl)-3-(3,5-dichlorophenyl)cyclopropane-1-carboxamide]	A (80–100)	A (80–100)				
C=CC(=O)Nc1c(F)ccc(NC(=O)c2cc(NC(=O)[C@H]3[C@H](c4ccc(F)c(C(F)(F)F)c4)C3(Cl)Cl)ccc2Cl)c1F [F1877, N-(3-Acrylamido-2,4-difluorophenyl)-2-chloro-5-((1R,3R)-2,2-dichloro-3-(4-fluoro-3-(trifluoromethyl)phenyl)cyclopropane-1-carboxamido)benzamide]				50 to 100%		50 to 100%
C=CCC(=O)Nc1c(F)ccc(NC(=O)c2cc(NC(=O)[C@H]3[C@H](c4ccc(F)c(Br)c4)C3(Cl)Cl)ccc2Cl)c1F [F1880, 5-((1R,3R)-3-(3-Bromo-4-fluorophenyl)-2,2-dichlorocyclopropane-1-carboxamido)-N-(3-(but-3-enamido)-2,4-difluorophenyl)-2-chlorobenzamide]				50 to 100%		50 to 100%
CCNC(=O)c1c(Cl)ccc(NC(=O)[C@H]2[C@H](c3ccc(F)c(Cl)c3)C2(Cl)Cl)c1F [F2071, 6-Chloro-3-((1R,3R)-2,2-dichloro-3-(3-chloro-4-fluorophenyl)cyclopropane-1-carboxamido)-N-ethyl-2-fluorobenzamide]				50 to 100%		50 to 100%
O=C(NCC(F)(F)F)c1c(Cl)ccc(NC(=O)[C@H]2[C@H](c3ccc(F)c(Cl)c3)C2(Cl)Cl)c1F [F2072, 6-Chloro-3-((1R,3R)-2,2-dichloro-3-(3-chloro-4-fluorophenyl)cyclopropane-1-carboxamido)-2-fluoro-N-(2,2,2-trifluoroethyl)benzamide]				50 to 100%		50 to 100%
O=C(NCC(F)(F)C(F)(F)F)c1c(Cl)ccc(NC(=O)[C@H]2[C@H](c3ccc(F)c(Cl)c3)C2(Cl)Cl)c1F [F2073, 6-Chloro-3-((1R,3R)-2,2-dichloro-3-(3-chloro-4-fluorophenyl)cyclopropane-1-carboxamido)-2-fluoro-N-(2,2,3,3,3-pentafluoropropyl)benzamide]				50 to 100%		50 to 100%
O=C(NCCCCl)c1c(Cl)ccc(NC(=O)[C@H]2[C@H](c3ccc(F)c(Cl)c3)C2(Cl)Cl)c1F [F2074, 6-Chloro-N-(3-chloropropyl)-3-((1R,3R)-2,2-dichloro-3-(3-chloro-4-fluorophenyl)cyclopropane-1-carboxamido)-2-fluorobenzamide]				50 to 100%		50 to 100%
CCNC(=O)c1cc(NC(=O)[C@H]2[C@H](c3ccc(F)c(C(F)(F)F)c3)C2(Cl)Cl)c(F)cc1Cl [F2083, 2-Chloro-5-((1R,3R)-2,2-dichloro-3-(4-fluoro-3-(trifluoromethyl)phenyl)cyclopropane-1-carboxamido)-N-ethyl-4-fluorobenzamide]	B (More than 0 – Less than 80)			50 to 100%		
O=C(NCC(F)(F)F)c1cc(NC(=O)[C@H]2[C@H](c3ccc(F)c(C(F)(F)F)c3)C2(Cl)Cl)c(F)cc1Cl [F2084, 2-Chloro-5-((1R,3R)-2,2-dichloro-3-(4-fluoro-3-(trifluoromethyl)phenyl)cyclopropane-1-carboxamido)-4-fluoro-N-(2,2,2-trifluoroethyl)benzamide]				50 to 100%		50 to 100%
O=C(NCC(F)(F)F)c1cc(NC(=O)[C@H]2[C@H](c3ccc(F)c(F)c3)C2(Cl)Cl)ccc1Cl [F2099, 2-Chloro-5-((1R,3R)-2,2-dichloro-3-(3,4-difluorophenyl)cyclopropane-1-carboxamido)-N-(2,2,2-trifluoroethyl)benzamide]				50 to 100%		50 to 100%
O=C(NCC(F)(F)F)c1cc(NC(=O)[C@@H]2[C@@H](c3ccc(F)c(F)c3)C2(Cl)Cl)ccc1Cl [F2100, 2-Chloro-5-((1S,3S)-2,2-dichloro-3-(3,4-difluorophenyl)cyclopropane-1-carboxamido)-N-(2,2,2-trifluoroethyl)benzamide]				50 to 100%		50 to 100%
